{
  "source": "patent US20060286132A1",
  "about": "“Use of stellate ganglion block for the treatment of sexual dysfunction” (priority 2005, published 2006)",
  "key": {"[1]": {"test_system": "severe menopausal hot flashes", "test": "Self-reported hot flashes pre and post stellate ganglion block in women with severe menopausal hot flashes", "type": "in vivo", "source_text": "A stellate ganglion block is illustratively performed by placing the patient in the supine position (on the back) with the neck slightly extended and the jaw open. While the patient is usually conscious for the procedure, a medication such as Versed (midazolam hydrochloride), fentanyl, or other sedative is often administered, to relax the patient. A local anesthetic is also usually administered, to numb the skin and tissue down to the ganglion nerve. A needle is inserted toward the stellate ganglion. […] The needle 20 is shown inserted adjacent to the stellate ganglion 10. In the illustrative block, a contrast solution is injected through needle 20 via syringe 22, and the needle position is confirmed by fluoroscopy or other means, as are known in the art.\nThe anesthetic 30 is then delivered next to stellate ganglion 10 by injection via needle 20. Illustratively, 5 cc 0.375% Marcaine® (bupivacaine) may be used. However, it is understood that other anesthetics, illustratively lidocaine, morphine or other opioids, clonidine, botox, or tetracine, or a combination of anesthetic and epinephrine, may be used and that the dosage range may vary depending on the particular anesthetic and other factors, as are known in the art. Needle 20 is removed, and the patient is optionally placed in the sitting position to facilitate the spread of anesthesia inferiorly to the stellate ganglion. Illustratively, longer acting anesthetics such as bupivacaine are used, but other anesthetics may be used, as are known in the art. The stellate ganglion block may also be performed by radiofrequency lesioning, as is known in the art.\nSix women suffering from severe menopausal hot flashes each received a standard stellate ganglion block (0.375% Marcaine, 5 cc), as described above. Hot flashes were assessed by self-reporting pre and post stellate ganglion block."}, "[2]": {"test_system": "sexual dysfunction, including anorgasmia", "test": "Sexual function after stellate ganglion block in a person with sexual dysfunction including anorgasmia", "type": "in vivo"}},
  "data": [
    {"compound": "CCCCN1CCCCC1C(=O)Nc1c(C)cccc1C", "note": "(stereo not drawn) [Marcaine, bupivacaine]", "values": [
      {"measurement": "success of initial stellate ganglion block, as evidenced by a positive Homer's syndrome and anhydrosis", "setting": "[1]; 0.375% Marcaine, 5 cc, six women, initial block", "result": "successful in all six subjects"},
      {"measurement": "duration of complete alleviation of hot flashes", "setting": "[1]; initial stellate ganglion block, 0.375% Marcaine, 5 cc, six women", "result": "2-5 weeks"},
      {"measurement": "additional asymptomatic period of relief from hot flashes", "setting": "[1]; second stellate ganglion block, after mild hot flashes returned", "result": "4-18 weeks"},
      {"measurement": "sexual function with additional stellate ganglion blocks", "setting": "[2]; additional blocks over the course of 3 years", "result": "maintain normal sexual function"},
      {"measurement": "sexual function following stellate ganglion block", "setting": "[2]; person, block in accordance with Example 1", "result": "return of normal sexual function"},
      {"measurement": "effect on sexual dysfunction, block administered through C7", "setting": "[2]; variation in treatment: administration of the stellate ganglion block through C7", "result": "ineffective"}
    ]}
  ]
}
